Data on five molecules can be found in patent publication US20050049276A1, “Imidazopyridines and triazolopyridines” (WARNER-LAMBERT COMPANY, LLC, priority 2003, published 2005).

The structures appear in SMILES notation. pIC50: −log10 of the molar value. Where a name gives a salt, the structure may show the parent alone. Read-outs that look alike come from different tables or passages of the source.

Data set [1] has as its system MEK (phosphorylation of MAP kinase (ERK) in murine colon 26 (C26) carcinoma cells). Description: Cellular inhibition of ERK phosphorylation, pERK ELISA format (C26ELSA). The format is cell-based. As to conditions: Mus musculus, 1 h, one hour treatment. The source says: Otherwise, percent inhibitions at measured concentrations are reported.
A general note: ELISA stands for enzyme-linked immunosorbent assay.

The test system is the same in data set [2]. The settings on record: read-out: C26CPA1 IC50, one hour treatment. Here is the method: Since ERK1 and ERK2 represent the only known substrates for MEK1 and MEK2, the measurement of inhibition of ERK phosphorylation in cells provides direct read out of cellular MEK inhibition by the compounds of the invention. Detection of phosphorylation of ERK was carried out either by Western blot or ELISA format. […] Supernatants were then subjected to gel electrophoresis and hybridized to a primary antibody recognizing dually phosphorylated ERK1 and ERK2. To evaluate total MAPK levels, blots were subsequently ‘stripped’ and re-probed with a 1:1 mixture of polyclonal antibodies recognizing unphosphorylated ERK1 and ERK2. For pERK ELISA assay, pERK TiterZyme Enzyme immunometric Assay kits were acquired from Assay Designs, Inc (Ann Arbor, Mich.). Briefly, cells were harvested in lysis solution containing 50 mM β-glycerophosphate, 10 mM HEPES, pH7.4, 70 mM NaCl, 2 mM EDTA and 1% SDS and protein lysates were diluted 1:15 with supplied Assay buffer prior to the execution of the assay. The subsequent steps were carried out essentially as recommended by the manufacturer.

The term melting point denotes the temperature of the solid-liquid transition. `CCOC(=O)c1cn2ccnc2cc1Nc1ccc(I)cc1F` [Example 1, 7-(2-Fluoro-4-iodo-phenylamino)-imidazo[1,2-a]pyridine-6-carboxylic acid ethyl ester]: the melting point fell in the range of 132 to 134 °C.

By pIC50 is commonly meant the IC50 on a negative log10 scale, so that one unit is a factor of ten. `NC(=O)c1cn2ccnc2cc1Nc1ccc(I)cc1F` [Example 3, 7-(2-Fluoro-4-iodo-phenylamino)-imidazo[1.2-a]pyridine-6-carboxylic acid amide] gave a pIC50 in data set [1] of 8.72.

As to `O=C(NCCO)C1=CN2CCN=C2C=C1Nc1ccc(I)cc1F` [Example 4, 7-(2-Fluoro-4-iodo-phenylamino)-2,3-dihydro-imidazo[1.2-a]pyridine-6-carboxylic acid (2-hydroxy-ethyl)-amide; hydroiodide salt], the pIC50 in data set [2] is 6.75.

For `CCOC(=O)c1cn2c(C)nnc2cc1Nc1ccc(I)cc1F` [Example 5, 7-(2-Fluoro-4-iodo-phenylamino)-3-methyl-[1,2,4]triazolo[4.3-a]pyridine-6-carboxylic acid ethyl ester], the melting point is 201 to 204 °C.

In the case of `Cc1nnc2cc(Nc3ccc(I)cc3F)c(C(N)=O)cn12` [Example 6, 7-(2-Fluoro-4-iodo-phenylamino)-3-methyl-[1,2,4]triazolo[4,3-a]pyridine-6-carboxylic acid amide], the melting point is 300 to 310 °C (dec.).
